Columns and labels:
[1] = tested on: Durch Ethanol verursachte Magengeschwüre; assay: Ethanol-induced gastric ulcers in fasted female rats; format: in vivo, Ratten; settings: for ED50: Rattus norvegicus, po, 30 min before 0,7 ml absolute ethanol, dose protecting 50 % of the animals
Experimental: (§1) Die mucoprotektive Wirkung auf den Gastrointestinaltrakt verschiedener Verbindungen wurde im Vergleich zu dem bekannten Antiulcusmittel Carbenoxolone an weiblichen Ratten getestet, die für 24 Stunden vor Beginn des Tests fasteten. Diese Tiere wurden den folgenden Tests unterworfen:
(§2) Gruppen von 10 Ratten erhielten abgestufte Dosen der zu untersuchenden Verbindungen oral mittels Schlundsonde; die Verbindungen waren in 0,2 % Methocel suspendiert. Nach 30 Minuten erhielten die Tiere 0,7 ml absolutes Ethanol. 30 Minuten später wurden die Tiere getötet, der Magen entfernt, entlang der großen Curvatur geöffnet und von einem neutralen Beobachter untersucht. Einem Magengeschwür entsprechende Schädigungen wurden auch nach ihrer Schwere beurteilt, aber ihre Häufigkeit (in %) diente als Basis für die Berechnung des prozentualen Schutzes. Die ED50 ist diejenige Dosis einer Verbindung, die 50 % der Tiere schützt; sie wird ausgedrückt durch die Relation Schutz:Dosis.

[2] = tested on: Durch Natronlauge verursachte Magengeschwüre; assay: Sodium hydroxide (0,2 N)-induced gastric ulcers in fasted female rats; format: in vivo, Ratten; settings: for ED50: Rattus norvegicus, po, 1 h, p.o., 0,2 N sodium hydroxide as ulcerogen, animals killed 60 min after it
Experimental: as §1, §2
Der Test verlief in gleicher Weise wie der unter 1. beschriebene. Anstelle von Ethanol wurde 0,2 N Natronlauge als Ulcus verursachendes Agens gewählt und die Tiere 60 Minuten nach dessen Gabe getötet. Die ED50 wurde, wie oben angegeben, bestimmt.

[3] = tested on: Durch Ethanol verursachte Magengeschwüre bei Ratten, die mit Indomethacin und Acetylsalicylsäure vorbehandelt worden waren; assay: Ethanol-induced gastric ulcers in rats pretreated with indomethacin or acetylsalicylic acid (suppression of prostaglandin synthesis); format: in vivo; settings: 30 mg/kg p.o.
Experimental: as §1, §2
Es ist bekannt, daß Prostaglandine einen cytoprotektiven Effekt haben. Weiter ist bekannt, daß Prostaglandine eine antiulcerogene Wirkung haben. Durch eine Hemmung der Prostaglandin-Biosynthese, z.B. durch Acetylsalicylsäure oder Indomethacin, wird die antiulceregene Wirkung unterdrückt.
Gruppen von je 10 Ratten wurden entweder mit Indomethacin (3 mg/kg s.c.) oder Acetylsalicylsäure (10 mg/kg) vorbehandelt und nach 30 bis 60 Minuten die Testsubstanz verabreicht. Dann wurde ein durch Ethanol verursachtes Magengeschwür gesetzt und, wie unter 1. beschrieben, weitergearbeitet.

## CC(CS)C(=O)N1CCc2sccc2C1C(=O)O [C, 1-(3-Mercapto-2-(R,S)-methylpropanoyl)-4,5,6,7-tetrahydro-thieno-[3,2-c]pyridin-4-(R,S)-carbonsäure]
[1]
  ED50: 6 mg/kg

## CC(CS)C(=O)N1CCC[C@@H]1C(=O)O (stereo partly drawn) [Captopril, D-2-Methyl-3-mercaptopropanoyl-L-prolin, reference compound]
[1]; 30 mg/kg p.o.
  % Schutz (% Tier ohne Magengeschwüre): 5%
[1]; 55 mg/kg p.o.
  % Schutz (% Tier ohne Magengeschwüre): 30%
[1]; 100 mg/kg p.o.
  % Schutz (% Tier ohne Magengeschwüre): 70%
[1]
  ED50: 74.4 mg/kg

## CC1(C)[C@@H](OC(=O)CCC(=O)O)CC[C@]2(C)[C@H]3C(=O)C=C4[C@@H]5C[C@@](C)(C(=O)O)CC[C@]5(C)CC[C@@]4(C)[C@]3(C)CC[C@@H]12 [Carbenoxolone, reference compound]
[1]; 30 mg/kg p.o.
  % Schutz (% Tier ohne Magengeschwüre): 10%
[1]; 100 mg/kg p.o.
  % Schutz (% Tier ohne Magengeschwüre): 60%
[1]; 300 mg/kg p.o.
  % Schutz (% Tier ohne Magengeschwüre): 90%
[1]
  ED50: 89 mg/kg
[2]; 100 mg/kg p.o.
  %Schutz-wirkung: 33%
[2]; 170 mg/kg p.o.
  %Schutz-wirkung: 70%
[2]; 300 mg/kg p.o.
  %Schutz-wirkung: 80%
[2]
  ED50: 132 mg/kg

## C[C@@H](CSC(C[N+](=O)[O-])c1ccccc1)C(=O)N1CCC[C@H]1C(=O)O (stereo partly drawn) [D, 1-[3-(1-Phenyl-2-nitro-äthylthio)-2-R-methylpropanoyl]-L-prolin]
[1]
  ED50: 0.6 mg/kg

## CCOC(=O)[C@H](CCc1ccccc1)N[C@@H](C)C(=O)N1CCc2ccsc2[C@H]1C(=O)O [E, N-[N-1-(S-Ethoxycarbonyl-3-phenylpropyl)-2-S-alanyl]-4,5,6,7-tetrahydro-thieno[2,3-c]pyridin-7-R-carbonsäure]
[1]
  ED50: 12 mg/kg

## CC(=O)SC[C@@H](C)C(=O)N1CCc2sccc2C1C(=O)O (stereo partly shown) [F]
[1]
  ED50: 3 mg/kg

## C[C@H](CS)C(=O)N1CCC[C@H]1C(=O)OCOC(=O)C(C)(C)C [G, 1-(3-Mercapto-Z-D-methylpropanoyl)-L-prolin-pivaloyloxymethylester]
[1]; 3 mg/kg p.o.
  % Schutz (% Tier ohne Magengeschwüre): 30%
[1]; 10 mg/kg p.o.
  % Schutz (% Tier ohne Magengeschwüre): 50%
[1]; 30 mg/kg p.o.
  % Schutz (% Tier ohne Magengeschwüre): 40%
[1]
  ED50: 4 mg/kg
[2]; 3 mg/kg p.o.
  %Schutz-wirkung: 10%
[2]; 10 mg/kg p.o.
  %Schutz-wirkung: 39%
[2]; 17 mg/kg p.o.
  %Schutz-wirkung: 70%
[2]; 30 mg/kg p.o.
  %Schutz-wirkung: 80%
[2]
  ED50: 11.7 mg/kg
[3]; pretreatment: Acetylsalicylsäure 10 mg/kg p.o., 60 min before ethanol
  % Schutzwirkung: 10%
[3]; pretreatment: Indomethacin 3 mg/kg s.c., 30 min before ethanol
  % Schutzwirkung: 40%
[3]; pretreatment: saline (control)
  % Schutzwirkung: 100%
